Laboratory results from patent US12522612B2, “PDE4 inhibitors, pharmaceutical compositions, and therapeutic applications” (BioTheryX, Inc., priority 2019, dated 2026).

How the values were obtained:
TNF-α = test: Cell-based TNF-α inhibition assay in LPS-induced PBMCs (Meso Scale); conditions: PBMC, PBMCs pretreated 1 h, LPS 100 ng/mL 18-24 h, relative to stimulated DMSO control; for inhibition at 1 µM: compound concentration 1 μM; for inhibition at 0.1 µM: compound concentration 0.1 μM
Procedure: Frozen primary blood mononuclear cells (PBMCs) were quick thawed, washed once with RPMI 1640 media supplemented with 10% fetal bovine serum, 1% penicillin, and 1% streptomycin, and plated in a 96 well plate at 200,000 cells per well. The cells were pretreated with DMSO only as a control or a compound for 1 h, and then induced with LPS (lipopolysaccharide) (100 ng/mL) for 18-24 h. The supernatant was analyzed for TNF-α using the Meso Scale assay. Compound activity was determined as a percentage of the stimulated DMSO control. The results are summarized in Table 1, where A represents a percent inhibition value ≥60%; B represents a percent inhibition value <60% and ≥40%; C represents a percent inhibition value <40% and >20%; and D represents a single percent inhibition value <20%.

PDE4B = molecular target: T1, PDE4B (Homo sapiens, UniProt Q07343); test: Protein degradation assay in A549 cells, western blot, PDE4B; assay type: cell-based; conditions: 24 h treatment, read-out: PDE4B degradation relative to DMSO
T1 construct: Whole cell extracts were prepared using an immunoprecipitation (IP) lysis buffer; endogenous in cells; host or cells: A549
T1 sequence (Q07343 whole entry): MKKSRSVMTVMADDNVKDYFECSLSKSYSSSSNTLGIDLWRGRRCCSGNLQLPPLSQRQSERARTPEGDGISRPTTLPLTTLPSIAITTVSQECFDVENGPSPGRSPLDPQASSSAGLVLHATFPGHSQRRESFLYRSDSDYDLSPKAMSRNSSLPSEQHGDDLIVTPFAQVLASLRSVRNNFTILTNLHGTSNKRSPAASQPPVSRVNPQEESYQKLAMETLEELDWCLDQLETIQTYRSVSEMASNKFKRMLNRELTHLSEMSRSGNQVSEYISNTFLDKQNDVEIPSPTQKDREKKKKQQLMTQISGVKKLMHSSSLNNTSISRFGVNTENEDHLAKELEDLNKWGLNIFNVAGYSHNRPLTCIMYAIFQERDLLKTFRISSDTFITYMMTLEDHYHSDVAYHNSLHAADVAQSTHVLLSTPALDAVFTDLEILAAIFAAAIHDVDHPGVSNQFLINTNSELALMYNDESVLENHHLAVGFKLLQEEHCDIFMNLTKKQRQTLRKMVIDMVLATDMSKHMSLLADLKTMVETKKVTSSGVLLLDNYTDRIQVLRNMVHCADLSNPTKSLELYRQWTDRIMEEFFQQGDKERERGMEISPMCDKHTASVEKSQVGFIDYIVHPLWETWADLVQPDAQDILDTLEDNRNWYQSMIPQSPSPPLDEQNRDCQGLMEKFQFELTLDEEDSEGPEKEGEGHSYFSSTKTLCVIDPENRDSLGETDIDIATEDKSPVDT
Procedure: A549 cells were grown in RPMI 1640 media supplemented with 10% fetal bovine serum, streptomycin, and penicillin. The cells were plated in 6-well plates in the growth media. The next day, fresh growth media were replaced on the cells. The cells were then treated with a compound for 24 h at predetermined concentrations. Whole cell extracts were prepared using an immunoprecipitation (IP) lysis buffer. Briefly, the cells were washed once in PBS, and the cell pellets were resuspended in the IP lysis buffer and incubated for 15 min on ice. Cells debris was removed by centrifugation and the cleared whole cell lysates were transferred to new tubes for further analysis.
For a western blot analysis, the whole cell protein extracts were separated on 4-12% SDS-polyacrylamide gels, transferred to nitrocellulose, and probed with primary antibodies. Membranes were subsequently washed and probed with IRDYE® secondary antibodies. The signals were detected using an ODYSSEY® Imaging System. The antibodies used in the assay included anti-PDE4B antibody; anti-PDE4D antibodies (top, bottom, and short isoform); β-actin mouse monoclonal antibody; IRDYE® 680RD goat anti-rabbit antibody; and IRDYE® 800CW goat anti-mouse antibody. Compounds B2 to B4, B18, B49 to B52, B76, B77, B79, B81 to B83, B88, B89, and B91 were determined to be able to degradate PDE4B as high as about 50% relative to DMSO.

Structure (SMILES) | inhibition at 1 µM (TNF-α) [%] | Dmax (PDE4B) [%] | inhibition at 0.1 µM (TNF-α) [%]
CCOc1cc([C@@H](CS(C)(=O)=O)N2C(=O)c3cc(CCCCCCCN4CCC(c5cc(F)cc6c5CN(C5CCC(=O)NC5=O)C6=O)CC4)cc(NC(C)=O)c3C2=O)ccc1OC (stereo partly drawn) [Compound B2, N-(6-(7-(4-(2-(2,6-dioxopiperidin-3-yl)-6-fluoro-1-oxoisoindolin-4-yl)piperidin-1-yl)heptyl)-2-((S)-1-(3-ethoxy-4-methoxyphenyl)-2-(methylsulfonyl)ethyl)-1,3-dioxoisoindolin-4-yl)acetamide] | ≥ 60 | ≤ 50 | –
CCOc1cc([C@@H](CS(C)(=O)=O)N2C(=O)c3cc(CCCN4CCC(c5cc(F)cc6c5CN(C5CCC(=O)NC5=O)C6=O)CC4)cc(NC(C)=O)c3C2=O)ccc1OC (stereo partly drawn) [Compound B69, N-(6-(3-(4-(2-(2,6-Dioxopiperidin-3-yl)-6-fluoro-1-oxoisoindolin-4-yl)piperidin-1-yl)propyl)-2-((S)-1-(3-ethoxy-4-methoxyphenyl)-2-(methylsulfonyl)ethyl)-1,3-dioxoisoindolin-4-yl)acetamide] | ≥ 60 | – | 40 to 60
CCOc1cc([C@@H](CS(C)(=O)=O)N2C(=O)c3cccc(NC(=O)CCCCCCCCNCc4ccc(OCc5scc6c5CN(C5CCC(=O)NC5=O)C6=O)cc4)c3C2=O)ccc1OC (stereo partly drawn) [Compound B70, 9-((4-((5-(2,6-Dioxopiperidin-3-yl)-4-oxo-5,6-dihydro-4H-thieno[3,4-c]pyrrol-1-yl)methoxy)benzyl)amino)-N-(2-((S)-1-(3-ethoxy-4-methoxyphenyl)-2-(methylsulfonyl)ethyl)-1,3-dioxoisoindolin-4-yl)nonanamide] | ≥ 60 | – | ≥ 60
CCOc1cc([C@@H](CS(C)(=O)=O)N2C(=O)c3cccc(NC(=O)CCCCCCCCCCCNc4cccc5c4C(=O)N(C4CCC(=O)NC4=O)C5=O)c3C2=O)ccc1OC (stereo partly drawn) [Compound B71, 12-((2-(2,6-Dioxopiperidin-3-yl)-1,3-dioxoisoindolin-4-yl)amino)-N-(2-((S)-1-(3-ethoxy-4-methoxyphenyl)-2-(methylsulfonyl)ethyl)-1,3-dioxoisoindolin-4-yl)dodecanamide] | ≥ 60 | – | ≥ 60
O=C1CCC(N2C(=O)c3cccc(NCCCCCCCOc4cc(C(=O)Nc5c(Cl)cncc5Cl)ccc4OC(F)F)c3C2=O)C(=O)N1 (stereo not shown) [Compound B72, N-(3,5-Dichloropyridin-4-yl)-4-(difluoromethoxy)-3-((7-((2-(2,6-dioxopiperidin-3-yl)-1,3-dioxoisoindolin-4-yl)amino)heptyl)oxy)benzamide] | ≥ 60 | – | ≥ 60
O=C1CCC(N2Cc3c(cc(F)cc3C3CCN(CCCCCCCCCCCCOc4cc(C(=O)Nc5c(Cl)cncc5Cl)ccc4OC(F)F)CC3)C2=O)C(=O)N1 (stereo not shown) [Compound B73, N-(3,5-Dichloropyridin-4-yl)-4-(difluoromethoxy)-3-((12-(4-(2-(2,6-dioxopiperidin-3-yl)-6-fluoro-1-oxoisoindolin-4-yl)piperidin-1-yl)dodecyl)oxy)benzamide] | ≥ 60 | – | ≥ 60
O=C1CCC(N2C(=O)c3cccc(NCCOCCOCCOCCOc4ccc(C(=O)Nc5c(Cl)cncc5Cl)cc4OC(F)F)c3C2=O)C(=O)N1 (stereo not shown) [Compound B74, N-(3,5-Dichloropyridin-4-yl)-3-(difluoromethoxy)-4-(2-(2-(2-(2-((2-(2,6-dioxopiperidin-3-yl)-1,3-dioxoisoindolin-4-yl)amino)ethoxy)ethoxy)ethoxy)ethoxy)benzamide] | ≥ 60 | – | ≥ 60
CCOc1cc([C@@H](CS(C)(=O)=O)N2C(=O)c3cccc(NC(=O)CCCCCCCCN4CCC(c5cc6c(cc5F)C(=O)N(C5CCC(=O)NC5=O)C6)CC4)c3C2=O)ccc1OC (stereo partly drawn) [Compound B75, 9-(4-(2-(2,6-Dioxopiperidin-3-yl)-6-fluoro-1-oxoisoindolin-5-yl)piperidin-1-yl)-N-(2-((S)-1-(3-ethoxy-4-methoxyphenyl)-2-(methylsulfonyl)ethyl)-1,3-dioxoisoindolin-4-yl)nonanamide] | ≥ 60 | – | ≥ 60
CCOc1cc([C@@H](CS(C)(=O)=O)N2C(=O)c3cccc(NC(=O)CCCCNCc4ccc(OCc5scc6c5CN(C5CCC(=O)NC5=O)C6=O)cc4)c3C2=O)ccc1OC (stereo partly drawn) [Compound B78, 5-((4-((5-(2,6-Dioxopiperidin-3-yl)-4-oxo-5,6-dihydro-4H-thieno[3,4-c]pyrrol-1-yl)methoxy)benzyl)amino)-N-(2-((S)-1-(3-ethoxy-4-methoxyphenyl)-2-(methylsulfonyl)ethyl)-1,3-dioxoisoindolin-4-yl)pentanamide] | ≥ 60 | – | –
COc1ccc(N2Cc3sccc3C2=O)cc1OCCCCCCCN1CCC(c2cc(F)cc3c2CN(C2CCC(=O)NC2=O)C3=O)CC1 (stereo not shown) [Compound B80, 3-(6-Fluoro-4-(1-(7-(2-methoxy-5-(4-oxo-4,6-dihydro-5H-thieno[2,3-c]pyrrol-5-yl)phenoxy)heptyl)piperidin-4-yl)-1-oxoisoindolin-2-yl)piperidine-2,6-dione] | ≥ 60 | – | –
O=C1CCC(N2Cc3c(NCCCOCCOCCOCCOc4ccc(C(=O)Nc5c(Cl)cncc5Cl)cc4OCC4CC4)cccc3C2=O)C(=O)N1 (stereo not shown) [Compound B81, 3-(Cyclopropylmethoxy)-N-(3,5-dichloropyridin-4-yl)-4-(2-(2-(2-(3-((2-(2,6-dioxopiperidin-3-yl)-1-oxoisoindolin-4-yl)amino)propoxy)ethoxy)ethoxy)ethoxy)benzamide] | – | ≤ 50 | –
O=C1CCC(N2Cc3c(cc(F)cc3C3CCN(CCCCCCCCCOc4ccc(C(=O)Nc5c(Cl)cncc5Cl)cc4OCC4CC4)CC3)C2=O)C(=O)N1 (stereo not shown) [Compound B84, 3-(Cyclopropylmethoxy)-N-(3,5-dichloropyridin-4-yl)-4-((9-(4-(2-(2,6-dioxopiperidin-3-yl)-6-fluoro-1-oxoisoindolin-4-yl)piperidin-1-yl)nonyl)oxy)benzamide] | ≥ 60 | – | –
CC(=O)NC(=O)C(C)N1Cc2c(cc(F)cc2C2CCN(CCCCCCCCCOc3cc(C(=O)Nc4c(Cl)cncc4Cl)ccc3OC(F)F)CC2)C1=O (stereo not shown) [Compound B85, 3-((9-(4-(2-(1-Acetamido-1-oxopropan-2-yl)-6-fluoro-1-oxoisoindolin-4-yl)piperidin-1-yl)nonyl)oxy)-N-(3,5-dichloropyridin-4-yl)-4-(difluoromethoxy)benzamide] | 20 to 40 | – | –
Cc1ncsc1-c1ccc(CNC(=O)[C@@H]2C[C@@H](O)CN2C(=O)[C@@H](NC(=O)CCCCCCCCOc2cc(C(=O)Nc3c(Cl)cncc3Cl)ccc2OCC2CC2)C(C)(C)C)cc1 [Compound B86, (2S,4R)-1-((S)-2-(9-(2-(Cyclopropylmethoxy)-5-((3,5-dichloropyridin-4-yl)carbamoyl)phenoxy)nonanamido)-3,3-dimethylbutanoyl)-4-hydroxy-N-(4-(4-methylthiazol-5-yl)benzyl)pyrrolidine-2-carboxamide] | ≥ 60 | – | –
CCOc1cc([C@@H](CS(C)(=O)=O)N2C(=O)c3cc(CCCCCCCC4CCN(c5cccc6c5C(=O)N(C5CCC(=O)NC5=O)C6=O)CC4)cc(NC(C)=O)c3C2=O)ccc1OC (stereo partly drawn) [Compound B88, N-(6-(7-(1-(2-(2,6-Dioxopiperidin-3-yl)-1,3-dioxoisoindolin-4-yl)piperidin-4-yl)heptyl)-2-((S)-1-(3-ethoxy-4-methoxyphenyl)-2-(methylsulfonyl)ethyl)-1,3-dioxoisoindolin-4-yl)acetamide] | – | ≤ 50 | –
CCOc1cc([C@@H](CS(C)(=O)=O)N2C(=O)c3cccc(NC(=O)CCOCCOCCNc4cccc5c4C(=O)N(C4CCC(=O)NC4=O)C5=O)c3C2=O)ccc1OC (stereo partly drawn) [Compound B89, 3-(2-(2-((2-(2,6-Dioxopiperidin-3-yl)-1,3-dioxoisoindolin-4-yl)amino)ethoxy)ethoxy)-N-(2-((S)-1-(3-ethoxy-4-methoxyphenyl)-2-(methylsulfonyl)ethyl)-1,3-dioxoisoindolin-4-yl)propanamide] | – | ≤ 50 | –
O=C1CCC(N2Cc3c(cc(F)cc3C3CCN(CCCCCCCOc4ccc(N5Cc6sccc6C5=O)cc4OC4CCCC4)CC3)C2=O)C(=O)N1 (stereo not shown) [Compound B91, 3-(4-(1-(7-(2-(Cyclopentyloxy)-4-(4-oxo-4,6-dihydro-5H-thieno[2,3-c]pyrrol-5-yl)phenoxy)heptyl)piperidin-4-yl)-6-fluoro-1-oxoisoindolin-2-yl)piperidine-2,6-dione] | – | ≤ 50 | –
